Assay results reported in US9273057B2 (Bristol-Myers Squibb Company, priority 2012, dated 2016).
Where a name gives a salt, the structure may show the parent alone.

Target: CK2A1 (CK2α/β) (Homo sapiens, UniProt P68400)
Assay: CK2 kinase assay, CK2A1 (CK2α/β)
Type: biochemical
Settings: Table A; read-out: CK2A1 (CK2α/β) (IC50)

Sequence of CK2A1 (CK2α/β) (P68400 whole entry, species assumed): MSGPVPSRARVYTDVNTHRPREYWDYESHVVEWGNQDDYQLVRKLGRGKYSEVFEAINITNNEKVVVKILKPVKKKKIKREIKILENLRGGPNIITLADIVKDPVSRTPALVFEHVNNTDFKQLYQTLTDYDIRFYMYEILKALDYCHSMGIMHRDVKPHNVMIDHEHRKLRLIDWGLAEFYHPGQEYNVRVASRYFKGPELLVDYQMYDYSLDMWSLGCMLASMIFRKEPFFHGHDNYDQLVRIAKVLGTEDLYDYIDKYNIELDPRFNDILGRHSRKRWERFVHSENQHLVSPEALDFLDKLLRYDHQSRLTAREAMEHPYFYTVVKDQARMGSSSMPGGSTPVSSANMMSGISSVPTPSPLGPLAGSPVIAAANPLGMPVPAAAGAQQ
Sequence of CK2A1 (CK2α/β) (P67870 whole entry partner, species assumed): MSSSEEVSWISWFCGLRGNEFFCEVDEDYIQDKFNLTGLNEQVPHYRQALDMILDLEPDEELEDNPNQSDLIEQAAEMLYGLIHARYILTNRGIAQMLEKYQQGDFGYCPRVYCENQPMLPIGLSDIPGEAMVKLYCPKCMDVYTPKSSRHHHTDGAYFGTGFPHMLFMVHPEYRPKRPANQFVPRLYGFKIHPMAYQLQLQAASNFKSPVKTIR

| SMILES | IC50 [nM] |
| --- | --- |
| COC(=O)N[C@H]1CN(c2cc(C#N)cc(Nc3nc(NC4CC4)c4ncc(C#N)n4n3)c2Cl)C[C@H]1CF [Example 287, methyl ((3R,4R)-1-(2-chloro-5-cyano-3-((7-cyano-4-(cyclopropylamino)imidazo[2,1-f][1,2,4]triazin-2-yl)amino)phenyl)-4-(fluoromethyl)-3-pyrrolidinyl)carbamate] | 1.17 |
| COC(=O)N[C@H]1CN(c2cc(C#N)cc(Nc3nc(NC4CC4)c4ncc(C#N)n4n3)c2Cl)C[C@@H]1OC [Example 288, methyl ((3S,4S)-1-(2-chloro-5-cyano-3-((7-cyano-4-(cyclopropylamino)imidazo[2,1-f][1,2,4]triazin-2-yl)amino)phenyl)-4-methoxy-3-pyrrolidinyl)carbamate] | 0.91 |
| CO[C@@H]1CN(c2cc(C#N)cc(Nc3nc(NC4CC4)c4ncc(C#N)n4n3)c2Cl)C[C@@H]1NS(C)(=O)=O [Example 289, N-((3S,4R)-1-(2-chloro-5-cyano-3-((7-cyano-4-(cyclopropylamino)imidazo[2,1-f][1,2,4]triazin-2-yl)amino)phenyl)-4-methoxy-3-pyrrolidinyl)methanesulfonamide] | 0.59 |
| CO[C@@H]1CN(c2cc(C#N)cc(Nc3nc(NC4CC4)c4ncc(C#N)n4n3)c2Cl)C[C@@H]1NC(=O)NC1COC1 [Example 290, 1-((3S,4R)-1-(2-chloro-5-cyano-3-((7-cyano-4-(cyclopropylamino)imidazo[2,1-f][1,2,4]triazin-2-yl)amino)phenyl)-4-methoxy-3-pyrrolidinyl)-3-(3-oxetanyl)urea] | 0.47 |
| CO[C@@H]1CN(c2cc(C#N)cc(Nc3nc(NC4CC4)c4ncc(C#N)n4n3)c2Cl)C[C@@H]1NC(=O)OC1COC1 [Example 291, 3-oxetanyl ((3S,4R)-1-(2-chloro-5-cyano-3-((7-cyano-4-(cyclopropylamino)imidazo[2,1-f][1,2,4]triazin-2-yl)amino)phenyl)-4-methoxy-3-pyrrolidinyl)carbamate] | 0.59 |
| COC(=O)N[C@@H]1CN(c2cc(C#N)cc(Nc3nc(NC4CC4)c4ncc(C#N)n4n3)c2Cl)C[C@@H]1C [Example 293, methyl ((3S,4S)-1-(2-chloro-5-cyano-3-((7-cyano-4-(cyclopropylamino)imidazo[2,1-f][1,2,4]triazin-2-yl)amino)phenyl)-4-methyl-3-pyrrolidinyl)carbamate] | 1.89 |
| COC(=O)N[C@H]1C[C@@H](O)CN(c2cc(C#N)cc(Nc3nc(NC4CC4)c4ncc(C#N)n4n3)c2Cl)C1 [Example 295, methyl ((3S,5R)-1-(2-chloro-5-cyano-3-((7-cyano-4-(cyclopropylamino)imidazo[2,1-f][1,2,4]triazin-2-yl)amino)phenyl)-5-hydroxy-3-piperidinyl)carbamate] | 1.21 |
| CC1(C)CN2CCN(c3cc(C#N)cc(Nc4nc(NC5CC5)c5ncc(C#N)n5n4)c3Cl)C[C@H]2CO1 [Example 303, (S)-2-((2-chloro-5-cyano-3-(3,3-dimethylhexahydropyrazino[2,1-c][1,4]oxazin-8(1H)-yl)phenyl)amino)-4-(cyclopropylamino)imidazo[2,1-f][1,2,4]triazine-7-carbonitrile, HCl] | 0.69 |
| CC1(N2CCOCC2)CCN(c2cc(C#N)cc(Nc3nc(NC4CC4)c4ncc(C#N)n4n3)c2Cl)CC1 [Example 304, 2-((2-chloro-5-cyano-3-(4-methyl-4-morpholinopiperidin-1-yl)phenyl)amino)-4-(cyclopropylamino)imidazo[2,1-f][1,2,4]triazine-7-carbonitrile, HCl] | 0.8 |
| N#Cc1cc(Nc2nc(NC3CC3)c3ncc(C#N)n3n2)c(Cl)c(N2C[C@@H](O)[C@H](N3CCOCC3)C2)c1 [Example 307, 2-((2-chloro-5-cyano-3-((3R,4R)-3-hydroxy-4-(4-morpholinyl)-1-pyrrolidinyl)phenyl)amino)-4-(cyclopropylamino)imidazo[2,1-f][1,2,4]triazine-7-carbonitrile] | 0.88 |
| N#Cc1cc(Nc2nc(NC3CC3)c3ncc(C#N)n3n2)c(Cl)c(N2CCN3CCOC[C@H]3C2)c1 [Example 308, (R)-2-((2-chloro-5-cyano-3-(hexahydropyrazino[2,1-c][1,4]oxazin-8(1H)-yl)phenyl)amino)-4-(cyclopropylamino)imidazo[2,1-f][1,2,4]triazine-7-carbonitrile] | 1.67 |
| N#Cc1cc(Nc2nc(NC3CC3)c3ncc(C#N)n3n2)c(Cl)c(N2CCN3CCOC[C@@H]3C2)c1 [Example 309, (S)-2-((2-chloro-5-cyano-3-(hexahydropyrazino[2,1-c][1,4]oxazin-8(1H)-yl)phenyl)amino)-4-(cyclopropylamino)imidazo[2,1-f][1,2,4]triazine-7-carbonitrile] | 1.31 |
| CC1(N2CCN(c3cc(C#N)cc(Nc4nc(NC5CC5)c5ncc(C#N)n5n4)c3Cl)CC2)COC1 [Example 311, 2-((2-chloro-5-cyano-3-(4-(3-methyl-3-oxetanyl)-1-piperazinyl)phenyl)amino)-4-(cyclopropylamino)imidazo[2,1-f][1,2,4]triazine-7-carbonitrile] | 0.96 |
| CN(C)C(=O)C1CN(c2cc(C#N)cc(Nc3nc(NC4CC4)c4ncc(C#N)n4n3)c2Cl)CCN1CC(C)(C)O (stereo not drawn) [Example 317, 4-(2-chloro-5-cyano-3-((7-cyano-4-(cyclopropylamino)imidazo [2,1-f][1,2,4]triazin-2-yl)amino)phenyl)-1-(2-hydroxy-2-methylpropyl)-N,N-dimethylpiperazine-2-carboxamide] | 0.99 |
| N#Cc1cc(Nc2nc(NC3CC3)c3ncc(C#N)n3n2)c(Cl)c(C2CCN(C3CNC3)CC2)c1 [Example 318, 2-((3-(1-(azetidin-3-yl)piperidin-4-yl)-2-chloro-5-cyanophenyl)amino)-4-(cyclopropylamino)imidazo[2,1-f][1,2,4]triazine-7-carbonitrile] | 0.78 |
| COC(=O)N1CC(N2CCC(c3cc(C#N)cc(Nc4nc(NC5CC5)c5ncc(C#N)n5n4)c3Cl)CC2)C1 [Example 320, methyl 3-(4-(2-chloro-5-cyano-3-((7-cyano-4-(cyclopropylamino)imidazo[2,1-f][1,2,4]triazin-2-yl)amino)phenyl)piperidin-1-yl)azetidine-1-carboxy] | 0.35 |
| CS(=O)(=O)N1CC(N2CCC(c3cc(C#N)cc(Nc4nc(NC5CC5)c5ncc(C#N)n5n4)c3Cl)CC2)C1 [Example 321, 2-((2-chloro-5-cyano-3-(1-(1-(methylsulfonyl)azetidin-3-yl)piperidin-4-yl)phenyl)amino)-4-(cyclopropylamino)imidazo[2,1-f][1,2,4]triazine-7-carbonitrile] | 0.66 |
| C[C@H](O)CN1CC(N2CCC(c3cc(C#N)cc(Nc4nc(NC5CC5)c5ncc(C#N)n5n4)c3Cl)CC2)C1 [Example 322, 2-((2-chloro-5-cyano-3-(1-(1-((2S)-2-hydroxypropyl)-3-azetidinyl)-4-piperidinyl)phenyl)amino)-4-(cyclopropylamino)imidazo [2,1-f][1,2,4]triazine-7-carbonitrile] | 1.78 |
| N#Cc1cc(Nc2nc(NC3CC3)c3ncc(C#N)n3n2)c(Cl)c(C2CCN(C3CN(CC4CC4)C3)CC2)c1 [Example 323, 2-((2-chloro-5-cyano-3-(1-(1-(cyclopropylmethyl)-3-azetidinyl)-4-piperidinyl)phenyl)amino)-4-(cyclopropylamino)imidazo [2,1-f][1,2,4]triazine-7-carbonitrile] | 0.59 |
| CC(C)(O)CN1CC(N2CCC(c3cc(C#N)cc(Nc4nc(NC5CC5)c5ncc(C#N)n5n4)c3Cl)CC2)C1 [Example 324, 2-((2-chloro-5-cyano-3-(1-(1-(2-hydroxy-2-methylpropyl)-3-azetidinyl)-4-piperidinyl)phenyl)amino)-4-(cyclopropylamino)imidazo [2,1-f][1,2,4]triazine-7-carbonitrile] | 0.78 |
| COCCN1CC(N2CCC(c3cc(C#N)cc(Nc4nc(NC5CC5)c5ncc(C#N)n5n4)c3Cl)CC2)C1 [Example 325, 2-((2-chloro-5-cyano-3-(1-(1-(2-methoxyethyl)-3-azetidinyl)-4-piperidinyl)phenyl)amino)-4-(cyclopropylamino)imidazo [2,1-f][1,2,4]triazine-7-carbonitrile] | 0.57 |
| CCNc1nc(Nc2cc(C#N)cc(N3CCC(N)CC3)c2Cl)nn2c(C#N)cnc12 [Example 329, 2-((3-(4-aminopiperidin-1-yl)-2-chloro-5-cyanophenyl)amino)-4-(ethylamino)imidazo[2,1-f][1,2,4]triazine-7-carbonitrile] | 0.34 |
| CCNc1nc(Nc2cc(C#N)cc(N3CCC(NC(=O)OC)CC3)c2Cl)nn2c(C#N)cnc12 [Example 330, methyl (1-(2-chloro-5-cyano-3-((7-cyano-4-(ethylamino)imidazo[2,1-f][1,2,4]triazin-2-yl)amino)phenyl)piperidin-4-yl)carbamate] | 0.55 |
| CCNc1nc(Nc2cc(C#N)cc(N3CC[C@H](NC(=O)OC)[C@H](F)C3)c2Cl)nn2c(C#N)cnc12 [Example 331, methyl ((3R,4S)-1-(2-chloro-5-cyano-3-((7-cyano-4-(ethylamino)imidazo[2,1-f][1,2,4]triazin-2-yl)amino)phenyl)-3-fluoro-4-piperidinyl)carbamate] | 2.32 |
| CCNc1nc(Nc2cc(C#N)cc(N3CC[C@@H](NC(=O)OCC)[C@H](O)C3)c2Cl)nn2c(C#N)cnc12 [Example 332, ethyl ((3R,4R)-1-(2-chloro-5-cyano-3-((7-cyano-4-(ethylamino)imidazo[2,1-f][1,2,4]triazin-2-yl)amino)phenyl)-3-hydroxypiperidin-4-yl)carbamate] | 0.41 |
| CCNc1nc(Nc2cc(C#N)cc(N3C[C@H](NC(=O)OC)[C@@H](OC)C3)c2Cl)nn2c(C#N)cnc12 [Example 333, methyl ((3S,4S)-1-(2-chloro-5-cyano-3-((7-cyano-4-(ethylamino)imidazo [2,1-f][1,2,4]triazin-2-yl)amino)phenyl)-4-methoxy-3-pyrrolidinyl)carbamate] | 0.46 |
| CCNc1nc(Nc2cc(C#N)cc(N3C[C@H](NC(=O)OC)[C@H](OC)C3)c2Cl)nn2c(C#N)cnc12 [Example 334, methyl ((3S,4R)-1-(2-chloro-5-cyano-3-((7-cyano-4-(ethylamino)imidazo[2,1-f][1,2,4]triazin-2-yl)amino)phenyl)-4-methoxy-3-pyrrolidinyl)carbamate] | 1.1 |
